From US8778961B2, “O-methylated rapamycin derivatives for alleviation and inhibition of lymphoproliferative disorders” (The Trustees of the University of Pennsylvania, priority 2000, dated 2014)
“And” between values parts separate entries of the source, which are not always exact repeats. Identical values can stand only once.

Experiments:
Assay type in all cases: in vivo
[1] = toxicity study in BALB/c and SCID mice; conditions: 5 milligrams per kilogram body weight per day
Description: Five- to seven-week-old immunodeficient SCID mice (C.B-17 and ICR) were purchased from Taconic (Germantown, N.J.) and housed at the University of Pennsylvania Animal Facility under pathogen-free conditions in a laminar air flow unit and supplied with sterile food and water. In the toxicity studies, 5-7 week old inbred BALB/c mice (Taconic) were used in addition to the SCID mice.
(§1) Mice were sacrificed by exposure to FORANE™ (isoflurane, Ohmeda, Liberty Place, N.J.) on day 29 in the drug toxicity study, on day 40-55 in the tumor growth inhibition study or when tumors achieved approximately 2 centimeter diameter, or when ulceration of the skin, signs of severe respiratory distress, weakness, or lethargy appeared. Complete autopsy was performed on all mice at the end of the study regardless of their appearance. Tumor and internal organs (spleen, liver, lung, heart, kidney, small and large intestines, femoral bone for bone marrow) were fixed in 10% (v/v) formalin, embedded in paraffin, cut into […] sections, transferred to glass slides, and stained with hematoxylin and eosin. Representative tumor fragments were stained immunohistochemically by standard streptavidin-biotin complex technique using commercially available reagents (Research Genetics, Huntsville, Ala.), antibodies: anti-CD20 (L-26) and LMP-1 (both from DAKO, Carpinteria, Calif.) and Ki67 (mib1; Immunotech, Westbrook, Me.). EBV-encoded RNA (EBER-1), and detected using commercially available reagents.
Previous studies have shown that a minimal effective dose of SDZ RAD in rats was 5 milligrams per kilogram body weight per day and >5 milligrams per kilogram body weight per day in the in kidney and heart transplant model, respectively, when SDZ RAD was used as a single immunosuppressive agent (Schuurman et al., 1997, Transplantation 64:32-5; Schuler et al. 1997, Transplantation 64: 36-42). In order to determine if prolonged exposure to SDZ RAD is non-toxic for mice, both immunocompetent and immunodeficient, a cohort of normal BALB/c mice were treated with the above dose of SDZ RAD for 28 days. Ten treated and 5 control, untreated mice were used in this study. Later SCID mice which were transplanted with human PTLD-like lymphomas and treated with SDZ RAD for up to 55 days were evaluated. Seven treated and 5 control untreated SCID mice were evaluated in this experiment. After receiving the final dose of the drug, all mice were sacrificed and the following organs were harvested for histopathologic evaluation to investigate for possible toxic effects: liver, spleen, kidney, small intestine, large intestine, heart, lung, and femoral bone for bone marrow.

[2] = system: 15A tumors; test: inhibition of tumor establishment in SCID mice
Procedure: (§2) Establishment and passaging of the xenotransplanted tumors was performed as described (Douglas et al., 1998, Cytometry 32:57-65; Kawamata et al., 1998, Blood 91:561-569; Pepper et al., 1998, Leuk. Res. 22:439-444). To deplete macrophages and NK cells and to enhance tumor engraftment, SCID mice were injected intraperitoneally with 30-45 milligrams per kilogram of etoposide (Bedford Laboratories, Bedford, Ohio) 4 days prior to implantation of the human EBV^+ B-cell lines (Visonneau et al., 1998, Am. J. Path. 152:1299-1311). Ten million cells of each line employed (see results) were inoculated into mice either intraperitoneally or subcutaneously in 200 microliters of Dulbecco's Phosphate Buffered Saline (DPBS; BioWhittaker, Walkersville, Md.). Ascites or palpable subcutaneous tumors developed 3-5 weeks after cell injection.
(§3) Tumor treatment and growth inhibition experiments were performed using fragments of the established subcutaneous tumors (Pasqualucci et al., 1995, Blood 85:2139-2146, Visonneau et al., 1998, Am. J. Path. 152:1299-1311). For this purpose, mice were anesthetized with KETALAR™ (ketamine, Parke-Davis, Morris Plains, N.J.) by intraperitoneal injection of 100 milligrams per kilogram. Next, the primary tumor was aseptically removed and freed from necrotic, fatty and connective tissue and divided into small pieces of roughly equal size and 3-4 pieces per mouse were injected subcutaneously. Treatment of established tumors with SDZ RAD was started when tumors reached 5 millimeters diameter. In growth inhibition experiments, the treatment was initiated 3 days prior to the tumor implantation. Tumor volume in all experiments was determined from the equation: volume=0.4ab^2, where a and b designate respectively long and short diameter of the tumor. The transplanted mice were monitored for tumor growth for a period of up to 2 months. Five milligrams per kilogram of SDZ RAD was administered once a day by gavage as described (Schuurman et al., 1997, Transplantation 64:32-5; Schuler et al. 1997, Transplantation 64:36-42).
as §1
(§4) Because SDZ RAD, when used as an immunosuppressive agent, is administered chronically to transplant patients, its main therapeutic impact on PTLDs may be to inhibit their development rather than to alleviate the clinically symptomatic cases. To test if SDZ RAD can inhibit establishment of PTLD-like lymphomas, daily treatment with 5 milligrams per kilogram body weight of the drug was initiated 3 days prior to the tumor implantation. […] On day 25, the treated tumors measured in average 38 cubic millimeters, the untreated approximately 1940 cubic millimeters. On day 45, the median volume of the treated tumor was 480 cubic millimeters. In 20A tumors, 6 out of 11 tumors were not detectable on day 25; the median volume of the remaining 5 was 20 cubic millimeters. The average untreated tumor measured 210 cubic millimeters on that day. […]

[3] = system: 20A tumors; test: inhibition of tumor establishment in SCID mice
Procedure: as §2, §3, §1, §4

[4] = system: A1 tumors; test: inhibition of tumor establishment in SCID mice
Procedure: as §2, §3, §1, §4

[5] = BALB/c 28 days, SCID up to 55 days
[6] = day 25, treatment from 3 days prior to implantation

## CO[C@H]1C[C@@H]2CC[C@@H](C)[C@@](O)(O2)C(=O)C(=O)N2CCCC[C@H]2C(=O)O[C@H]([C@H](C)C[C@@H]2CC[C@@H](OCCO)[C@H](OC)C2)CC(=O)[C@H](C)/C=C(\C)[C@@H](O)[C@@H](OC)C(=O)[C@H](C)C[C@H](C)/C=C/C=C/C=C/1C [SDZ RAD, 40-O-(2-hydroxy)ethyl-rapamycin]
[1]; [5]
  growth and weight gain vs control group: the same
  visible signs of drug toxicity: None of the treated mice
[1]; liver, spleen, kidney, intestines, heart, lung, bone marrow
  microscopic evaluation of organs: no pathologic changes
[1]; regardless of immune status
  adverse effect of prolonged exposure: no adverse effect
[2]; 5 milligrams per kilogram body weight daily, initiated 3 days prior to tumor implantation
  effect on tumor growth and establishment: profoundly delayed the tumor growth, but was unable to inhibit the tumor establishment
[2]; [6]
  average treated tumor volume: 38 cubic millimeters
[2]; day 45, treatment from 3 days prior to implantation
  median volume of the treated tumor: 480 cubic millimeters
[3]; 11 treated mice, microscopic evaluation revealed no malignant cells
  treated mice with no signs of tumor (establishment completely inhibited): Five and 5/11
[3]; day 25
  median volume of the remaining 5 tumors: 20 cubic millimeters
[3]; [6]
  tumors not detectable: 6 out of 11
[3]; day 45
  volume of treated tumors (none exceeded): ≤ 150 cubic millimeters
[4]; day 29, treatment from 3 days prior to implantation
  tumor detection in the 8 treated mice: no tumor could be detected
[4]; day 53, 8 treated mice
  mice with no evidence of tumor (establishment completely inhibited): 5 and 5/8
  mice with small, histologically confirmed lymphomas: 3
[4]; day 53, the 3 mice with lymphoma
  volume of the small lymphomas: < 5 cubic millimeters
